Source: US20230348454A1, “COMPOUNDS AS MODULATORS OF BIS-PHOSPHOGLYCERATE MUTASE FOR THE TREATMENT OF SICKLE CELL DISEASE” (Genzyme Corporation, priority 2020, published 2023)

Biological target: T1, hBPGM (Homo sapiens, UniProt P07738)
T1 sequence (P07738 1-259): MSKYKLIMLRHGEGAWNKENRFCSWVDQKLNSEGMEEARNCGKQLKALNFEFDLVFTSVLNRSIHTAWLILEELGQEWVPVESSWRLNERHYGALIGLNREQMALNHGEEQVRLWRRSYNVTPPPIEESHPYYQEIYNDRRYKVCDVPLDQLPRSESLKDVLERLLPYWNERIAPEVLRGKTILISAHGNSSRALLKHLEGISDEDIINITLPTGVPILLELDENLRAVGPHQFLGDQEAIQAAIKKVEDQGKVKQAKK
Assay: BPGM synthase assay
Format: biochemical
Details: Table 3; read-out: hBPGM Synthase IC50
Experimental: The following materials were used in this assay: deionized water; Bisphosphoglycerate mutase (BPGM; Standard Buffer: 50 mM Tris, 0.01% Tween 20, pH 7.4); BPGM Reaction Buffer (50 mM Tris, 0.01% Tween 20, 3.23 mM KH2PO4, pH 7.4); dithiothreitol (DTT; Stock solution: 100 mM in Standard Buffer); 384-Well Black Assay Plate (Corning, P/N 3575); DMSO; BPGM Stock Solution (500 nM in BPGM Standard Buffer); Glyceraldehyde 3-phosphate dehydrogenase (GAPDH; Stock Solution: 40 U/mL in 20 mM Tris-HCL Buffer with 20% Glycerol, 1 mM EDTA, 1 mM DTT); Glyceraldehyde 3-phosphate (GAP; Stock Solution: 20 mM in BPGM Standard Buffer); 3-PG Stock Solution (500 μM in BPGM Standard Buffer); Nicotinamide adenine dinucleotide (NAD; Stock Solution: 50 mM in BPGM Standard Buffer); Koningic Acid (1 mM Stock in DMSO); Resazurin Stock Solution (10 mM in DMSO); Diaphorase Stock Solution (40 U/mL in BPGM Standard Buffer); DTT Reaction Buffer (1 mM DTT in BPGM Reaction Buffer); Enzyme Solution (5 nM BPGM, 0.4 U/mL GAPDH in DTT Reaction Buffer); GAPDH Solution (0.4 U/mL GAPDH in DTT Reaction Buffer); Substrate Solution (2 mM NAD, 20 μM 3PG, 800 μM GAP in DTT Reaction Buffer); and Resazurin Solution (5 U/mL Diaphorase, 500 μM Resazurin in BPGM Standard Buffer).
To the assay plate was added Enzyme Solution (20 uL) to columns 2-22 and 24 of the assay plate. To columns 1 and 23 was added GAPDH Solution (20 uL). A separate compound plate was prepared at the desired concentrations and all wells were normalized with 5% DMSO. The compound plate was incubated for 30 minutes at RT. Next, the substrate solution (20 μL) was dispensed to all reaction wells and the plate was incubated for 60 minutes at RT. Koningic acid (1 μL) was added and the plate was incubated for 10 minutes at RT. During this time period, the NADH fluorescence was read at ex: 360/em: 460. Next, Resazurin Solution (10 μL) was added to all reaction wells and the plate was incubated for 30 minutes at RT. The resorufin fluorescence was then read at ex:544/em:590.

IC50	SMILES
511 nM	Cc1nc(COc2ccccn2)sc1-c1csc(-c2cc(F)c(O)c(F)c2F)n1 [compound 11]
256 nM	Cc1nc(COc2ncccn2)sc1-c1cccc(-c2cc(F)c(O)c(C#N)c2)n1 [compound 12]

Same assay, conditions: Table 6; read-out: huBPGM: synthase Enzyme IC50

IC50	SMILES
160 nM	Cc1nc(COc2ncc(C(=O)O)cn2)sc1-c1cccc(-c2cc(F)c3nn[nH]c3c2F)n1 [Example 135]
330 nM	CCc1cnc(OCc2nc(C)c(-c3cccc(-c4cc(F)c5nn[nH]c5c4F)n3)s2)nc1 [Example 144]
1100 nM	Cc1nc(COCC(=O)N(C)C)sc1-c1cccc(-c2cc(F)c(O)c(F)c2F)n1 [Example 170]
340 nM	COC(=O)NCc1nc(C)c(-c2csc(-c3ccc(-c4nnn[nH]4)cc3)n2)s1 [Example 205]
92 nM	Cc1nc(CNc2ncccn2)sc1-c1csc(-c2cc(F)c(O)c(F)c2F)n1 [Example 165]
6500 nM	COC(=O)NCc1nc(C)c(-c2csc(-c3ccc(C(=O)Nc4nnn[nH]4)cc3)n2)s1 [Example 207]
3100 nM	Cc1nc(CNC(=O)C(C)(C)C)sc1-c1csc(-c2cc(F)c(O)c(F)c2)c1 [Example 197]
170 nM	Cc1nc(COc2ncccn2)sc1-c1cccc(-c2ccc(C(=O)NS(=O)(=O)c3ccccc3)cc2)n1 [Example 157]
510 nM	Cc1nc(COc2ccccn2)sc1-c1csc(-c2cc(F)c(O)c(F)c2F)n1 [compound 11]
410 nM	Cc1nc(CNC(=O)c2cccnn2)sc1-c1csc(-c2cc(F)c(O)c(F)c2)n1 [Example 201]
300 nM	COC(=O)NCc1nc(C)c(-c2csc(-c3cc(F)c(O)c(F)c3F)n2)s1 [Example 187]
2200 nM	Cc1nc(COC(C)C(=O)N(C)C)sc1-c1csc(-c2cc(F)c(O)c(F)c2F)n1 (stereo not drawn) [Example 98]
280 nM	Cc1nc(COc2ncccn2)sc1-c1cccc(-c2cc(F)c(O)c(F)c2F)n1 [Example 172]
820 nM	Cc1nc(CNC(=O)c2cccnn2)sc1-c1csc(-c2cc(F)c(O)c(F)c2)c1 [Example 194]
680 nM	Cc1nc(CNC(=O)c2cccnn2)sc1-c1cccc(-c2cc(F)c(O)c(F)c2F)n1 [Example 164]
180 nM	COC(=O)NCc1nc(C)c(-c2csc(-c3cc(F)c4[nH]nnc4c3)n2)s1 [Example 214]
1000 nM	Cc1nc(COc2ccccn2)sc1-c1csc(-c2cc(F)c(O)c(F)c2)n1 [Example 192]
1500 nM	Cc1nc(COc2ncccn2)sc1-c1cccc(-c2ccc3nnc(O)n3c2)n1 [Example 151]
79 nM	Cc1nc(CNc2ncccn2)sc1-c1csc(-c2cc(F)c3[nH]nnc3c2)n1 [Example 175]
170 nM	Cc1nc(COCC(=O)N(C)C)sc1-c1cccc(-c2cc(F)c3nn[nH]c3c2)n1 [Example 163]
84 nM	Cc1nc(CNC(=O)c2cccnn2)sc1-c1csc(-c2cc(F)c(O)c(F)c2F)n1 [Example 188]
130 nM	Cc1nc(COc2ncccn2)sc1-c1csc(-c2cc(F)c(O)c(F)c2F)n1 [compound 10]
54 nM	Cc1nc(COc2ncccn2)sc1-c1cccc(-c2cc(F)c3[nH]nnc3c2)n1 [Example 141]
260 nM	Cc1nc(COc2ncccn2)sc1-c1cccc(-c2cc(F)c(O)c(C#N)c2)n1 [compound 12]

Biological target: T2, human Bisphosphoglycerate mutase (hBPGM) (Homo sapiens, UniProt P07738)
T2 sequence (P07738 1-259): T1 sequence (P07738 1-259)
Assay: BPGM phosphatase assay
Format: biochemical
Details: Table 4; read-out: hBPGM Phosphatase EC50
Experimental: The following materials were used in this assay: Tris buffer (50 mM Tris, 0.01% Tween 20, pH 7.4); cyclohexylammonium salt of 2,3-BPG (stock solution of 500 mM in ultapure distilled water; human Bisphosphoglycerate mutase (hBPGM; stock solution of 110 μM in Standard Buffer); 3-Phosphoglyceric acid (3-PG; stock solution of 100 mM in ultrapure distilled water); 384-Well Polystyrene Plates (Fisherbrand™, Catalog No.: 12-566-625); BIOMOL GREEN REAGENT (Enzo life sciences, BML-AK111-0250); and 1 mM DMSO stock of exemplary compounds.
A 3-PG enzyme mix solution (final enzyme concentration 62.5 nM, 3-PG concentration at 50 µM, 14.5 uL) was added to onto a 384-well clear plate. Solutions of the test compounds were then added to the plate and the DMSO content was normalized across the plate. The plate was incubated at RT for 15 min. Next, the substrate 2,3-BPG (5 μL) was added to all the wells, and the plate was sealed and incubated for 24 hr at RT. After incubation, BIOMOL green dye (40 μL) was added to all the wells, the plate was shaken to mix, and the plate was incubated at RT for 20-30 min. Absorbance measurements were recorded at 620 nm.

EC50	SMILES
190 nM	Cc1nc(COc2ccccn2)sc1-c1csc(-c2cc(F)c(O)c(F)c2F)n1 [compound 11]
310 nM	Cc1nc(COc2ncccn2)sc1-c1csc(-c2cc(F)c(O)c(F)c2F)n1 [compound 10]

Same assay, conditions: Table 6; read-out: huBPGM: phosphatase Enzyme EC50

EC50	SMILES
240 nM	Cc1nc(COc2ncc(C(=O)O)cn2)sc1-c1cccc(-c2cc(F)c3nn[nH]c3c2F)n1 [Example 135]
40 nM	CCc1cnc(OCc2nc(C)c(-c3cccc(-c4cc(F)c5nn[nH]c5c4F)n3)s2)nc1 [Example 144]
880 nM	Cc1nc(COCC(=O)N(C)C)sc1-c1cccc(-c2cc(F)c(O)c(F)c2F)n1 [Example 170]
440 nM	COC(=O)NCc1nc(C)c(-c2csc(-c3ccc(-c4nnn[nH]4)cc3)n2)s1 [Example 205]
110 nM	Cc1nc(CNc2ncccn2)sc1-c1csc(-c2cc(F)c(O)c(F)c2F)n1 [Example 165]
8200 nM	COC(=O)NCc1nc(C)c(-c2csc(-c3ccc(C(=O)Nc4nnn[nH]4)cc3)n2)s1 [Example 207]
400 nM	Cc1nc(CNC(=O)C(C)(C)C)sc1-c1csc(-c2cc(F)c(O)c(F)c2)c1 [Example 197]
240 nM	Cc1nc(COc2ncccn2)sc1-c1cccc(-c2ccc(C(=O)NS(=O)(=O)c3ccccc3)cc2)n1 [Example 157]
190 nM	Cc1nc(COc2ccccn2)sc1-c1csc(-c2cc(F)c(O)c(F)c2F)n1 [compound 11]
180 nM	Cc1nc(CNC(=O)c2cccnn2)sc1-c1csc(-c2cc(F)c(O)c(F)c2)n1 [Example 201]
480 nM	COC(=O)NCc1nc(C)c(-c2csc(-c3cc(F)c(O)c(F)c3F)n2)s1 [Example 187]
380 nM	Cc1nc(COC(C)C(=O)N(C)C)sc1-c1csc(-c2cc(F)c(O)c(F)c2F)n1 (stereo not drawn) [Example 98]
240 nM	Cc1nc(COc2ncccn2)sc1-c1cccc(-c2cc(F)c(O)c(F)c2F)n1 [Example 172]
370 nM	Cc1nc(CNC(=O)c2cccnn2)sc1-c1csc(-c2cc(F)c(O)c(F)c2)c1 [Example 194]
550 nM	Cc1nc(CNC(=O)c2cccnn2)sc1-c1cccc(-c2cc(F)c(O)c(F)c2F)n1 [Example 164]
96 nM	COC(=O)NCc1nc(C)c(-c2csc(-c3cc(F)c4[nH]nnc4c3)n2)s1 [Example 214]
490 nM	Cc1nc(COc2ccccn2)sc1-c1csc(-c2cc(F)c(O)c(F)c2)n1 [Example 192]
20000 nM	Cc1nc(COc2ncccn2)sc1-c1cccc(-c2ccc3nnc(O)n3c2)n1 [Example 151]
30 nM	Cc1nc(CNc2ncccn2)sc1-c1csc(-c2cc(F)c3[nH]nnc3c2)n1 [Example 175]
260 nM	Cc1nc(COCC(=O)N(C)C)sc1-c1cccc(-c2cc(F)c3nn[nH]c3c2)n1 [Example 163]
140 nM	Cc1nc(CNC(=O)c2cccnn2)sc1-c1csc(-c2cc(F)c(O)c(F)c2F)n1 [Example 188]
310 nM	Cc1nc(COc2ncccn2)sc1-c1csc(-c2cc(F)c(O)c(F)c2F)n1 [compound 10]
57 nM	Cc1nc(COc2ncccn2)sc1-c1cccc(-c2cc(F)c3[nH]nnc3c2)n1 [Example 141]
